Data: patent US12708604B2, “Lyophilized preparation of prostaglandin E1 methyl ester for injection and production and use thereof” (Xi'an Hanfeng Pharmaceutical Co., Ltd., priority 2018, dated 2026)
Read-outs that look alike come from different tables or passages of the source.

Legend:
[1] = system: isolated rabbit blood vessels (thoracic aorta vascular ring); experiment: Vasodilation test in vitro (isolated aortic ring); assay type: cell-based, New Zealand white rabbits; conditions: Oryctolagus cuniculus; cumulative addition 0.05-25.6 nM; read-out: diastolic efficacy on isolated rabbit blood vessels, EC50
Method: In the experiment, rabbits were selected to prepare isolated aortic ring specimens: New Zealand white rabbits, male, weighing (2.5±0.3) kg. The rabbit was stunned with a blunt instrument, fixed on the rabbit dissecting table, and the thoracic aorta was quickly separated, and placed in a petri dish filled with saturated Kerbs solution (containing NaCl 6.9 g, KCl 0.35 g, MgSO4.7H2O 0.29 g, KH2PO4 0.16 g, NaHCO3 2.1 g, CaCl2 0.28 g, glucose 2 g per 1000 mL) at 37° C. and continuously introduced with mixed gas (95% O2, 5% CO2). The remaining blood in the blood vessel was squeezed out, and the peripheral fat and connective tissue were carefully peeled off, and it was cut into 0.5 cm long arterial rings for use. […]
BL-420S biological function experiment system (Chengdu Techman Technology) was used to record the variation of vascular ring tension. After the vascular ring contraction was stable, prostaglandin E1 and the compounds of the Examples were accumulatively added to successively increase the final mass concentration of prostaglandin E1 in the bath tube to 0.05, 0.1, 0.2, 0.4, 0.8, 1.6, 3.2, 6.4, 12.8, 25.6 nM, and the diastolic efficacies of the vascular ring were recorded.

[2] = system: ADP-induced platelet aggregation; experiment: Anti-platelet aggregation test in vitro (ADP-induced, rat platelet-rich plasma); assay type: cell-based, SD rats; conditions: for inhibition at 100 µM: Platelet, 2 μL of 100 μM compound in 300 μL rat PRP, read-out: inhibition rate on ADP-induced platelet aggregation; for onset of anti-aggregation effect after addition to PRP: immediately after addition
Method: When healthy adult SD rats were anesthetized by intraperitoneal injection of 10% chloral hydrate, fresh whole blood was collected from the abdominal aorta and added to a centrifuge tube anticoagulated with 3.8% sodium citrate solution, and centrifuged at 900 rpm for 10 minutes to remove the upper platelet-rich plasma (PRP) for use. The tube having PRP removed was further centrifuged at 4000 rpm for 10 minutes, and the upper clarified plasma (PPP) was removed for use. In the experiment, Techlink model LBY-NJ4 4-channel platelet aggregator was used to determine the anticoagulant efficacy of each compound.
Into a sample cup containing 300 μL of PRP, 2 μL of 100 μM PGE1, Compound 1 of Example, Compound 2 of Example and methanol (solvent) were first added. After incubated for different periods (0, 1, 2, 4, 7, 10, 15 min), […], of aggregation inducer 180 μM ADP solution was added. The aggregation rate of each sample was measured, and the inhibitory rate of the compound on ADP-induced platelet aggregation was calculated. Inhibition rate %=(solvent aggregation rate−compound aggregation rate)/solvent aggregation rate×100%

[3] = 10 min, after 10 minutes of incubation

Row | EC50 [1] [nM] | Compound | inhibition at 100 µM [2, 3] [%] | onset of anti-aggregation effect after addition to PRP ([2]; rat PRP) | duration of anticoagulant effect relative to PGE1 ([2]; rat PRP, versus PGE1) [times] | inhibition at 100 µM ([2]; 4 min, after 4 minutes of incubation) [%]
1 | 1.09 | CCCCC[C@H](O)/C=C/[C@H]1[C@H](O)CC(=O)[C@@H]1CCCCCCC(=O)OC [Compound 1] | 43.7 | take effect immediately | 2 | 
2 |  | CCCCC[C@H](O)/C=C/[C@H]1[C@H](O)CC(=O)[C@@H]1CCCCCCC(=O)OCC [Compound 2] | 51.9 | does not take effect immediately |  | 
3 | 9.77 | CCCCC[C@H](O)/C=C/[C@H]1[C@H](O)CC(=O)[C@@H]1CCCCCCC(=O)O [PGE1, Prostaglandin E1] |  | take effect immediately |  | 4.93
